Measured values reported in patent US20240150356A1, “Pyrimidine amide compounds and use thereof” (ALPHALA CO., LTD., priority 2019, published 2024).

Tested on: Hep3B cells (hepatocellular carcinoma cell line)
Assay: In vitro MTS cell viability assay (NCI-60 methodology), Hep3B
Assay type: cell-based
Details: Homo sapiens, 48 h, Table 1, MTS, 2 days drug incubation, 50% reduction vs time zero, read-out: Hep3B LC50
Experimental: The cell viability measurement is based on the NCI-60 screening methodology (Nat. Rev. Cancer 6, 813-823, 2006). Briefly, cells are inoculated into 96-well plates at the optimal plating density. After 24 h, one of the two plates for Hep3B cell line is processed to determine a time zero cell viability (Tz) by MTS assay (Promega). Compounds are added over a 2-fold serial dilution to provide a total five drug concentrations plus DMSO control. Plates are incubated for a further 2 days, then measured cell viability by MTS assay [control growth (C) and test growth in the presence of drug at the five concentration levels (Ti)]. The LC50 is calculated from [(Ti−Tz)/Tz]×100=−50, which is the drug concentration resulting in a 50% reduction at the end of the drug treatment as compared to that at the beginning.
The compounds prepared in Tables 1-10 were tested in three in vitro assays, and the results are shown in Tables 1-10 for Hep3B and Table 11 for SW480 and NCI-H460 shown below. Herein, Hep3B refers to hepatocellular carcinoma cell line, SW480 refers to colon adenocarcinoma cell line, and NCI-H460 refers to human lung cancer cell line.
Shown in following Tables 1 to 10 are the structures and in vitro activities of exemplary compounds of formula (I).

With Cn1ncc2c(NC(=O)c3ccc([N+](=O)[O-])s3)nc(Oc3cccc(C(F)(F)F)c3)nc21 [Compound 1-18, N-(1-methyl-6-(3-(trifluoromethyl)phenoxy)-1H-pyrazolo[3,4-d]pyrimidin-4-yl)-5-nitrothiophene-2-carboxamide] the LC50 was 1990 nM.

Same assay, conditions: Homo sapiens, 48 h, Table 2, MTS, 2 days drug incubation, 50% reduction vs time zero, read-out: Hep3B LC50

CC(C)(C)c1ccc(-c2nc(NC(=O)c3ccc([N+](=O)[O-])s3)nc3c2cnn3C(C)(C)C)cc1 [Compound 2-5, N-(1-(tert-butyl)-4-(4-(tert-butyl)phenyl)-1H-pyrazolo[3,4-d]pyrimidin-6-yl)-5-nitrothiophene-2-carboxamide] was tested, and the LC50 was 12900 nM.

Same assay, conditions: Homo sapiens, 48 h, Table 3, MTS, 2 days drug incubation, 50% reduction vs time zero, read-out: Hep3B LC50

First: CCn1cc2nc(-c3ccc(C(C)(C)C)cc3)nc(NC(=O)c3ccc([N+](=O)[O-])s3)c2c1 [Compound 3-11, N-(2-(4-(tert-butyl)phenyl)-6-ethyl-6H-pyrrolo[3,4-d]pyrimidin-4-yl)-5-nitrothiophene-2-carboxamide]
Second: Cc1nn(C)c2c(NC(=O)c3ccc([N+](=O)[O-])s3)nc(-c3ccc(C(F)(F)F)cc3)nc12 [Compound 3-1, N-(1,3-dimethyl-5-(4-(trifluoromethyl)phenyl)-1H-pyrazolo[4,3-d]pyrimidin-7-yl)-5-nitrothiophene-2-carboxamide]
The LC50 of the first is 3.4-fold higher: 7640 nM for the first, 2220 nM for the second.

Same assay, conditions: Homo sapiens, 48 h, Table 4, MTS, 2 days drug incubation, 50% reduction vs time zero, read-out: Hep3B LC50

Cc1csc2c(NC(=O)c3ccc([N+](=O)[O-])s3)nc(-c3ccc(C(F)(F)F)cc3F)nc12 [Compound 4-14, N-(2-(2-fluoro-4-(trifluoromethyl)phenyl)-7-methylthieno[3,2-d]pyrimidin-4-yl)-5-nitrothiophene-2-carboxamide] and Cc1csc2c(NC(=O)c3ccc([N+](=O)[O-])s3)nc(-c3ccc(F)cc3)nc12 [Compound 4-8] are within 1.5-fold of each other in LC50: 1350 nM for the first, 1700 nM for the second.

Same assay, conditions: Homo sapiens, 48 h, Table 5, MTS, 2 days drug incubation, 50% reduction vs time zero, read-out: Hep3B LC50

Going from O=C(Nc1nc(Oc2ccc(F)cc2)nc2c1cnn2-c1ccccc1)c1ccc([N+](=O)[O-])s1 [Compound 5-14, N-(6-(4-fluorophenoxy)-1-phenyl-1H-pyrazolo[3,4-d]pyrimidin-4-yl)-5-nitrothiophene-2-carboxamide] to O=C(Nc1nc(-c2cc(C(F)(F)F)ccc2F)nc2c1cnn2-c1ccccc1)c1ccc([N+](=O)[O-])s1 [Compound 5-50, N-(6-(2-fluoro-5-(trifluoromethyl)phenyl)-1-phenyl-1H-pyrazolo[3,4-d]pyrimidin-4-yl)-5-nitrothiophene-2-carboxamide], the LC50 falls from greater than 5000 nM to 350 nM.

Going from O=C(Nc1nc(N2CC[C@H](O)C2)nc2c1cnn2-c1ccccc1)c1ccc([N+](=O)[O-])s1 [Compound 5-4, (S)—N-(6-(3-hydroxypyrrolidin-1-yl)-1-phenyl-1H-pyrazolo[3,4-d]pyrimidin-4-yl)-5-nitrothiophene-2-carboxamide] to O=C(Nc1nc(-c2cc(F)c(F)c(F)c2)nc2c1cnn2-c1ccccc1)c1ccc([N+](=O)[O-])s1 [Compound 5-53, 5-nitro-N-(1-phenyl-6-(3,4,5-trifluorophenyl)-1H-pyrazolo[3,4-d]pyrimidin-4-yl)thiophene-2-carboxamide], the LC50 rises from 1010 nM to greater than 1250 nM.

With CCOCCOCCOc1ccc(-c2nc(NC(=O)c3ccc([N+](=O)[O-])s3)c3cnn(-c4ccccc4)c3n2)cn1 [Compound 5-57, N-(6-(6-(2-(2-ethoxyethoxy)ethoxy)pyridin-3-yl)-1-phenyl-1H-pyrazolo[3,4-d]pyrimidin-4-yl)-5-nitrothiophene-2-carboxamide] the LC50 was 790 nM.

Same assay, conditions: Homo sapiens, 48 h, Table 6, MTS, 2 days drug incubation, 50% reduction vs time zero, read-out: Hep3B LC50

First: CC(C)(C)c1ccc(-n2ncc3c(NC(=O)c4ccc([N+](=O)[O-])s4)nc(-n4ccnc4)nc32)cc1 [Compound 6-74, N-(1-(4-(tert-butyl)phenyl)-6-(1H-imidazol-1-yl)-1H-pyrazolo[3,4-d]pyrimidin-4-yl)-5-nitrothiophene-2-carboxamide]
Second: CC(C)(C)c1ccc(-n2ncc3c(NC(=O)c4ccc([N+](=O)[O-])s4)nc(-c4ccccc4F)nc32)cc1 [Compound 6-79, N-(1-(4-(tert-butyl)phenyl)-6-(2-fluorophenyl)-1H-pyrazolo[3,4-d]pyrimidin-4-yl)-5-nitrothiophene-2-carboxamide]
The LC50 of the first is 2.1-fold lower: 330 nM for the first, 690 nM for the second.

First: O=C(Nc1nc(N2CCC[C@H]2CO)nc2c1cnn2-c1cccc(Cl)c1)c1ccc([N+](=O)[O-])s1 [Compound 6-31, (S)—N-(1-(3-chlorophenyl)-6(2-(hydroxymethyl)pyrrolidin-1-yl)-1H-pyrazolo[3,4-d]pyrmidin-4-yl)-5-nitrothiophene-2-carboxamide]
Second: COC(=O)[C@@H]1CCCN1c1nc(NC(=O)c2ccc([N+](=O)[O-])s2)c2cnn(-c3cccc(Cl)c3)c2n1 [Compound 6-32, methyl (1-(3-chlorophenyl)-4-(5-nitrothiophene-2-carboxamido)-1H-pyrazolo[3,4-d]pyrimidin-6-yl)-L-prolinate]
The LC50 of the first is higher: greater than 1250 nM for the first, 560 nM for the second.

Compared with CCOc1cc(Cl)ccc1-c1nc(NC(=O)c2ccc([N+](=O)[O-])s2)c2cnn(-c3ccc(F)cc3)c2n1 [Compound 6-129, N-(6-(4-chloro-2-ethoxyphenyl)-1-(4-fluorophenyl)-1H-pyrazolo[3,4-d]pyrimidin-4-yl)-5-nitrothiophene-2-carboxamide], COc1ccc(-n2ncc3c(NC(=O)c4ccc([N+](=O)[O-])s4)nc(-c4ccc(Cl)cc4F)nc32)cc1 [Compound 6-22, N-(6-(4-chloro-2-fluorophenyl)-1-(4-methoxyphenyl)-1H-pyrazolo[3,4-d]pyrimidin-4-yl)-5-nitrothiophene-2-carboxamide] is lower in LC50: greater than 3000 nM for the first, 380 nM for the second.

Going from COCCOc1ccc(-c2nc(NC(=O)c3ccc([N+](=O)[O-])s3)c3cnn(-c4cccc(Cl)c4)c3n2)cn1 [Compound 6-43, N-(1-(3-chlorophenyl)-6-(6-(2-methoxyethoxy)pyridin-3-yl)-1H-pyrazolo[3,4-d]pyrimidin-4-yl)-5-nitrothiophene-2-carboxamide] to O=C(Nc1nc(-c2ccc(OCCO)nc2)nc2c1cnn2-c1ccc(F)cc1)c1ccc([N+](=O)[O-])s1 [Compound 6-134, N-(1-(4-fluorophenyl)-6-(6-(2-hydroxyethoxy)pyridin-3-yl)-1H-pyrazolo[3,4,d]pyrimidin-4-yl)-5-nitrothiophene-2-carboxamide], the LC50 rises from 90 nM to 220 nM (2.4-fold).

In the case of Cc1ccc(-n2ncc3c(NC(=O)c4ccc([N+](=O)[O-])s4)nc(-c4ccc5c(c4)OCCO5)nc32)cc1 [Compound 6-10, N-(6-(2,3-dihydrobenzo[b][1,4]dioxin-6-yl)-1-(p-tolyl)-1H-pyrazolo[3,4-d]pyrimidin-4-yl)-5-nitrothiophene-2-carboxamide], the LC50 was 620 nM.

Same assay, conditions: Homo sapiens, 48 h, Table 7, MTS, 2 days drug incubation, 50% reduction vs time zero, read-out: Hep3B LC50

In the case of O=C(Nc1nc(-c2ccc(C(F)(F)F)cc2)nc2c1cnn2-c1ccc(C(F)(F)F)cn1)c1ccc([N+](=O)[O-])s1 [Compound 7-4, 5-nitro-N-(6-(4-(trifluoromethyl)phenyl)-1-(5-(trifluoromethyl)pyridin-2-yl)-1H-pyrazolo[3,4-d]pyrimidin-4-yl)thiophene-2-carboxamide], the LC50 was 220 nM.

Same assay, conditions: Homo sapiens, 48 h, Table 8, MTS, 2 days drug incubation, 50% reduction vs time zero, read-out: Hep3B LC50

O=C(Nc1nc(-c2ccc(F)cc2)nc2c1cnn2C1CCCCCC1)c1ccc([N+](=O)[O-])s1 [Compound 8-10, N-(1-cycloheptyl-6-(4-fluorophenyl)-1H-pyrazolo[3,4-d]pyrimidin-4-yl)-5-nitrothiophene-2-carboxamide] was tested, and the LC50 was 830 nM.

Same assay, conditions: Homo sapiens, 48 h, Table 10, MTS, 2 days drug incubation, 50% reduction vs time zero, read-out: Hep3B LC50

O=C(Nc1nc(-c2ccc(F)cc2F)nc2c1cnn2C1CCCCC1)c1ccc([N+](=O)[O-])s1 [Compound 10-39] and O=C(Nc1nc(-c2ccc(F)cc2Cl)nc2c1cnn2C1CCCCC1)c1ccc([N+](=O)[O-])s1 [Compound 10-46, N-(6-(2-chlor-4-fluorophenyl)-1-cyclohexyl-1H-pyrazolo[3,4-d]pyrimidin-4-yl)-5-nitrothiophene-2-carboxamide] are within 1.5-fold of each other in LC50: 1240 nM for the first, 1030 nM for the second.

O=C(Nc1nc(-c2ccnc(F)c2)nc2c1cnn2C1CCCCC1)c1ccc([N+](=O)[O-])s1 [Compound 10-15, N-(1-cyclohexyl-6-(2-fluoropyridin-4-yl)-1H-pyrazolo[3,4-d]pyrimidin-4-yl)-5-nitrothiophene-2-carboxamide] and O=Cc1ccc(-c2nc(NC(=O)c3ccc([N+](=O)[O-])s3)c3cnn(C4CCCCC4)c3n2)cc1 [Compound 10-27, N-(1-cyclohexyl-6-(4-formylphenyl)-1H-pyrazolo[3,4-d]pyrimidin-4-yl)-5-nitrothiophene-2-carboxamide] are within 1.5-fold of each other in LC50: 1170 nM for the first, 840 nM for the second.

Going from CC1(C)CCC(n2ncc3c(NC(=O)c4ccc([N+](=O)[O-])s4)nc(-c4ccc(F)cc4)nc32)CC1 [Compound 10-61] to COc1ccc(-c2nc(NC(=O)c3ccc([N+](=O)[O-])s3)c3cnn(C4CCCCC4)c3n2)cc1OC [Compound 10-48, N-(1-cyclohexyl-6-(3,4-dimethoxyphenyl)-1H-pyrazolo[3,4-d]pyrimidin-4-yl)-5-nitrothiophene-2-carboxamide], the LC50 rises from 550 nM to 970 nM (1.8-fold).
